# Measurements from US8022053B2, “Oral solid dosage forms containing a low dose of estradiol” (Bayer Schering Pharma Aktiengesellschaft, priority 2004, dated 2011).
# Marks after values point to notes of the source that are not given here.
# Key:
# [1] = daily oral administration of 1 to 3 mg of estradiol; cited from earlier work
# [2] = In vitro dissolution of micronised estradiol and estradiol/polyvinylpyrrolidone powder mixtures (USP apparatus 2, paddle); type: physicochemical; details: 900 ml purified water, 37° C., 50 rpm, powder corresponding to 100 μg estradiol hemihydrate
# Procedure: The dissolution characteristics of micronised estradiol and mixtures of micronised estradiol and polyvinylpyrrolidone, respectively, were investigated in an in vitro dissolution test system. The dissolution tester was a USP apparatus 2 (paddle system) (See <711> of USP 27) using 900 ml of purified water temperated at 37° C. as the dissolution media and a rotation speed of 50 rpm. The estradiol and the mixtures in powdery form were placed into the dissolution vessels in an amount corresponding to 100 μg of micronised estradiol hemihydrate.
# [3] = Bioavailability study, serum levels of estradiol after a single oral tablet; type: in vivo, healthy postmenopausal women; details: fasted, for an extended period of time
# Procedure: A bioavailability study was conducted in order to determine the serum levels of estradiol after single administration of a tablet formulation identical to the one described in Example 2 containing 190 μg and 100 μg of micronised estradiol hemihydrate, respectively. The study design was open labelled, 3 periods, 3 treatments, cross-over design with a single administration of each treatment and two weeks' washout between each period. The study population were 24 healthy postmenopausal women, age 55-75. Fasted condition was held.
# The full-drawn line refers to the mean serum levels of estradiol achieved by administering a single dose of 190 μg to the study population, and the dotted line refers to the mean serum levels of estradiol achieved by administering a single dose of 100 μg to the study population. The mean serum level of endogenous estradiol was 3-3.5 pg/ml.
SMILES,Bioavailability [1],Amount of estradiol (μg) dissolved after 5 min ([2]; 5 min),Amount of estradiol (μg) dissolved after 10 min ([2]; 10 min),Amount of estradiol (μg) dissolved after 20 min ([2]; 20 min),Amount of estradiol (μg) dissolved after 30 min ([2]; 30 min),Amount of estradiol (μg) dissolved after 60 min ([2]; 60 min),Mean serum levels of estradiol ([3]; Example 2 tablet with 100 μg (printed 100 pg)),Mean serum levels of estradiol ([3]; Example 2 tablet with 190 μg)
C[C@]12CC[C@@H]3c4ccc(O)cc4CC[C@H]3[C@@H]1CC[C@@H]2O [estradiol],3-5%,–,–,–,–,–,–,–
"C[C@]12CC[C@@H]3c4ccc(O)cc4CC[C@H]3[C@@H]1CC[C@@H]2O [micronised estradiol hemihydrate, estradiol hemihydrate]",–,<3* μg,<3* μg,<3* μg,<3* μg,<3 µg,5 to 20 pg/mL,5 to 20 pg/mL
